Assay results taken from ChEMBL document CHEMBL1201862, “PubChem BioAssay data set” (2004).
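Exposure lasted 48 hours, with cells grown in 96-well plates and compounds tested at five concentrations. GI50 = concentration required for 50% inhibition of growth.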 Calls of active or inactive are those of the source. No stated cut-off is given here; in the data, active = GI50 up to about 1.1 µM and inactive = higher.

Legend:
Assay in all cases: NCI tumour cell line growth inhibition, 48 h
SNB-75 = system: SNB-75
SK-MEL-2 = system: SK-MEL-2
SF-268 = system: SF-268
U-251 = system: U-251
SK-MEL-5 = system: SK-MEL-5
RPMI-8226 = system: RPMI-8226
OVCAR-8 = system: OVCAR-8
UACC-257 = system: UACC-257
HCC 2998 = system: HCC 2998
HL-60 = system: HL-60
LOX IMVI = system: LOX IMVI
MDA-MB-435 = system: MDA-MB-435
SK-OV-3 = system: SK-OV-3
786-0 = system: 786-0
NCI-H23 = system: NCI-H23
DU-145 = system: DU-145
SN12C = system: SN12C
COLO 205 = system: COLO 205
NCI-H522 = system: NCI-H522
SNB-19 = system: SNB-19

Structure (SMILES) | GI50 (SNB-75) | GI50 (SK-MEL-2) | GI50 (SF-268) | GI50 (U-251) | GI50 (SK-MEL-5) | GI50 (RPMI-8226) | GI50 (OVCAR-8) | GI50 (UACC-257) | GI50 (HCC 2998) | GI50 (HL-60) | GI50 (LOX IMVI) | GI50 (MDA-MB-435) | GI50 (SK-OV-3) | GI50 (786-0) | GI50 (NCI-H23) | GI50 (DU-145) | GI50 (SN12C) | GI50 (COLO 205) | GI50 (NCI-H522) | GI50 (SNB-19)
NC(=O)CCSC(CC(=O)c1ccc(Cl)cc1)c1ccc(Cl)cc1 (stereo not given) | 40.1 µM (inactive) | 24.3 µM (inactive) | 27.8 µM (inactive) | 16.2 µM (inactive) | 17.2 µM (inactive) | 2.21 µM (inactive) | 16.3 µM (inactive) | 27.7 µM (inactive) | 18.2 µM (inactive) | 6.97 µM (inactive) | 12.1 µM (inactive) | 16 µM (inactive) | 38.1 µM (inactive) | 30 µM (inactive) | 32.4 µM (inactive) | 27.5 µM (inactive) | 28.2 µM (inactive) | 33 µM (inactive) | 23.2 µM (inactive) | 32.5 µM (inactive)
C=C1C(=O)OC2CC(C)C3C=CC(=O)C3CC12 (stereo not given) | 5.51 µM (inactive) | 2.04 µM (inactive) | 2.55 µM (inactive) | 6.76 µM (inactive) | 2.14 µM (inactive) | 1.71 µM (inactive) | 2.94 µM (inactive) | 2.02 µM (inactive) | 4.73 µM (inactive) | 0.891 µM (active) | 0.867 µM (active) | 3.31 µM (inactive) | 16.1 µM (inactive) | 1.76 µM (inactive) | 1.83 µM (inactive) | 5.41 µM (inactive) | 2.02 µM (inactive) | 1.52 µM (inactive) | 0.61 µM (active) | 15.4 µM (inactive)
CC(C)(O)C1COC2=C1C(=O)c1ccccc1C2=O (stereo not given) | 19.8 µM (inactive) | 29.7 µM (inactive) | 21.6 µM (inactive) | 58.5 µM (inactive) | 22.3 µM (inactive) | 44.8 µM (inactive) | 22.5 µM (inactive) | 71.9 µM (inactive) | > 100 µM (inactive) | 18.9 µM (inactive) | 19.2 µM (inactive) | 23.3 µM (inactive) | > 100 µM (inactive) | 41.3 µM (inactive) | 18.2 µM (inactive) | 20.9 µM (inactive) | 27.8 µM (inactive) | 82 µM (inactive) | 47.1 µM (inactive) | > 100 µM (inactive)
CC(=O)NCCc1c[nH]c2ccc(Cl)cc12 | 33.4 µM (inactive) | > 100 µM (inactive) | > 100 µM (inactive) | > 100 µM (inactive) | > 100 µM (inactive) | > 100 µM (inactive) | > 100 µM (inactive) | > 100 µM (inactive) | 74.8 µM (inactive) | > 100 µM (inactive) | > 100 µM (inactive) | > 100 µM (inactive) | > 100 µM (inactive) | > 100 µM (inactive) | > 100 µM (inactive) | > 100 µM (inactive) | > 100 µM (inactive) | > 100 µM (inactive) | 91 µM (inactive) | > 100 µM (inactive)
N#CC1=C(N)C(C#N)(C#N)C(c2ccc(F)cc2)C=C1C1CC1 (stereo not given) | 6 µM (inactive) | 6.52 µM (inactive) | 4.81 µM (inactive) | 5.68 µM (inactive) | 4.46 µM (inactive) | 7.05 µM (inactive) | 9.93 µM (inactive) | 9.12 µM (inactive) | 12.8 µM (inactive) | 4.13 µM (inactive) | 3.94 µM (inactive) | 3.22 µM (inactive) | 8.93 µM (inactive) | 9.84 µM (inactive) | 4.22 µM (inactive) | 12.9 µM (inactive) | 2.72 µM (inactive) | 12.4 µM (inactive) | 3.78 µM (inactive) | 13.2 µM (inactive)
CCC(C)C1=C(O)[N+]2([O-])Oc3ccc(-c4c(O)c(O)c(-c5ccc(O)cc5)c(OC(C)=O)c4OC(C)=O)cc3OC2(C(C)CC)C(=O)N1O (stereo not given) | > 50 µM (inactive) | > 50 µM (inactive) | > 50 µM (inactive) | > 50 µM (inactive) | > 50 µM (inactive) | > 50 µM (inactive) | > 50 µM (inactive) | > 50 µM (inactive) | 0.005 µM (active) | > 50 µM (inactive) | 17.6 µM (inactive) | 16.8 µM (inactive) | > 50 µM (inactive) | 13.7 µM (inactive) | > 50 µM (inactive) | > 50 µM (inactive) | > 50 µM (inactive) | > 50 µM (inactive) | 23.5 µM (inactive) | > 50 µM (inactive)
COC(=O)C1[C@H](C(=O)OC)C1(Br)CBr (stereo not given in full) | > 100 µM (inactive) | > 100 µM (inactive) | > 100 µM (inactive) | > 100 µM (inactive) | > 100 µM (inactive) | > 100 µM (inactive) | > 100 µM (inactive) | > 100 µM (inactive) | > 100 µM (inactive) | > 100 µM (inactive) | > 100 µM (inactive) | > 100 µM (inactive) | > 100 µM (inactive) | > 100 µM (inactive) | > 100 µM (inactive) | > 100 µM (inactive) | > 100 µM (inactive) | > 100 µM (inactive) | 8.95 µM (inactive) | > 100 µM (inactive)
